In brackets after ≈: the same amount, converted by molar mass.
Assays:
[1] = Cytotoxicity against mouse RAW264.7 cells after 4 hrs by MTT assay; type: cell-based; conditions: read-out: TD50
[2] = test system: Bacillus anthracis; experiment: Bactericidal activity against Bacillus anthracis; type: functional

| SMILES | CC50 at 4 h [1] [µg/mL] | EC50 [2] [µg/mL] |
| --- | --- | --- |
| CC(C)NC(=O)N[C@H](CNC(=O)N[C@@H](CCCCN)CNC(=O)N[C@H](CNC(=O)N[C@H](CNC(=O)N[C@@H](CCCCN)CNC(=O)N[C@H](CNC(=O)N[C@@H](CCCCN)CNC(=O)N[C@H](CNC(N)=S)C(C)C)Cc1c[nH]c2ccccc12)C(C)C)Cc1c[nH]c2ccccc12)C(C)C | 21 (≈ 14.9 µM) | – |
| CC(C)NC(=O)N[C@H](CNC(=O)N[C@@H](CCCCN)CNC(=O)N[C@H](CNC(=O)N[C@H](CNC(=O)N[C@@H](CCCCN)CNC(=O)N[C@H](CNC(=O)N[C@@H](CCCCN)CNC(=N)N[C@H](CCC(N)=O)C(C)C)Cc1c[nH]c2ccccc12)C(C)C)Cc1c[nH]c2ccccc12)C(C)C | 15 (≈ 10.8 µM) | – |
| CC(C)NC(=O)N[C@H](CNC(=O)N[C@@H](CCCCN)CNC(=O)N[C@H](CNC(=O)N[C@H](CCNC(=O)N[C@@H](CCCCN)CNC(=O)N[C@H](CNC(=O)N[C@@H](CCCCN)CNC(=O)N[C@H](CCC(N)=O)C(C)C)Cc1c[nH]c2ccccc12)C(C)C)Cc1c[nH]c2ccccc12)C(C)C | – | 7 to 10 (≈ 4.99 to 7.13 µM) |
| CC(C)NC(=O)N[C@H](CNC(=S)N[C@@H](CCCCN)CNC(=O)N[C@H](CNC(=O)N[C@H](CNC(=O)N[C@@H](CCCCN)CNC(=O)N[C@H](CNC(=O)N[C@@H](CCCCN)CNC(=O)N[C@H](CNC(N)=O)C(C)C)Cc1c[nH]c2ccccc12)C(C)C)Cc1c[nH]c2ccccc12)C(C)C | 26 (≈ 18.5 µM) | – |
| CC(C)NC(=O)N[C@H](CNC(=O)N[C@@H](CCCCN)CNC(=O)N[C@H](CNC(=O)N[C@H](CNC(=O)N[C@@H](CCCCN)CNC(=O)N[C@H](CNC(=O)N[C@@H](CCCCN)CNC(=S)N[C@H](CCC(N)=O)C(C)C)Cc1c[nH]c2ccccc12)C(C)C)Cc1c[nH]c2ccccc12)C(C)C | 20.5 (≈ 14.6 µM) | – |
| CC(C)NC(=O)N[C@H](CNC(=O)N[C@@H](CCCCN)CNC(=O)N[C@H](CNC(=O)N[C@H](CNC(=S)N[C@@H](CCCCN)CNC(=O)N[C@H](CNC(=O)N[C@@H](CCCCN)CNC(=O)N[C@H](CNC(N)=O)C(C)C)Cc1c[nH]c2ccccc12)C(C)C)Cc1c[nH]c2ccccc12)C(C)C | 28 (≈ 19.9 µM) | – |
